Test results taken from US12043613B2, “Inhibitors of SARM1” (Disarm Therapeutics, Inc., priority 2020, dated 2024).

target: T1, SARM1 (ARM-SAM-TIR, full length SARM1) (Homo sapiens, UniProt Q6SZW1); assay: not given; details: read-out: SARM1 IC50; ARM-SAM-TIR lysate 5 μg/mL from NRK1-HEK293T cells, 2 h pre-incubation, 5 uM NAD+, 2 hr room temperature
T1 sequence (Q6SZW1 with tags, fused parts or gaps): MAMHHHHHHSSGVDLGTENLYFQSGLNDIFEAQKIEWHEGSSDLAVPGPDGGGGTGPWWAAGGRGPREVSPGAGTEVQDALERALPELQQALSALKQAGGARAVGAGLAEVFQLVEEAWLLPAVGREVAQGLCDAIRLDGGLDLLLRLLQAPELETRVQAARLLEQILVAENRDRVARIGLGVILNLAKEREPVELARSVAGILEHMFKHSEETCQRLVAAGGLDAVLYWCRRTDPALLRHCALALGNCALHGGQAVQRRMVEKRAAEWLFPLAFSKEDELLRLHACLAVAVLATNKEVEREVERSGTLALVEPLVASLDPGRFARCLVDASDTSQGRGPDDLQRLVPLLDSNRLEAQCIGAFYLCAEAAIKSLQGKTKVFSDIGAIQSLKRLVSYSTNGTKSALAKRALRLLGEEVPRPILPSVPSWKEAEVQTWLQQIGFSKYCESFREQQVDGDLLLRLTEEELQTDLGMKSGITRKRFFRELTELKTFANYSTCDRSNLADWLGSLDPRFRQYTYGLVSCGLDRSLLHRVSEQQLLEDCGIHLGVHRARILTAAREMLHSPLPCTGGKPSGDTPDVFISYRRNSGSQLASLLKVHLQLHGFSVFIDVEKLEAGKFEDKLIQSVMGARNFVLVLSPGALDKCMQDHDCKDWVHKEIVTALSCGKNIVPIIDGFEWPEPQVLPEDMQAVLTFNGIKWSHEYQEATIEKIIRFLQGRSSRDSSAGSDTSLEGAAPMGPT

SMILES | IC50
O=C1C(Cc2ccc(Cl)cc2)CCCN1c1nnc(-c2ccncc2)[nH]1 (single isomer, unassigned) [I-5* (peak 2)] | < 50 nM
O=C1C(Cc2ccc(F)c(F)c2)CCN1c1cc(-c2ccncc2)n[nH]1 (single isomer, unassigned) [I-16* (peak 2)] | < 50 nM
O=C1C(Cc2ccc(Cl)cc2)CCCN1c1cc(-c2ccncc2)n[nH]1 (single isomer, unassigned) [I-19* (peak 2)] | < 50 nM
O=C1[C@H](Cc2ccc(Cl)c(F)c2)CCCN1c1cc(-c2ccnnc2)n[nH]1 [I-76*] | < 50 nM
O=C1[C@H](Cc2ccc(Cl)nc2)CCCN1c1cc(-c2ccnnc2)n[nH]1 [I-77*] | < 50 nM
O=C1[C@H](Cc2ccc(F)nc2)CCCN1c1cc(-c2ccnnc2)n[nH]1 [I-84*] | < 50 nM
O=C1[C@H](Cc2ccc(F)cc2)CCCN1c1cc(-c2ccnnc2)n[nH]1 [I-85*] | < 50 nM

Second part, the molecule after the results:

IC50 | SMILES
51 to 100 nM | N#Cc1ccc(CC2CCN(c3cc(-c4ccncc4)n[nH]3)C2=O)cc1F (single isomer, unassigned) [I-37* (peak 2)]
101 to 500 nM | Cc1c(-c2ccncc2)n[nH]c1N1CCC(Cc2cnc(Cl)c(F)c2)C1=O (single isomer, unassigned) [I-41* (peak 2)]
> 1000 nM | O=C1N(c2nc(-c3ccncc3)n[nH]2)CCC1(F)Cc1ccc(Cl)nc1 (single isomer, unassigned) [I-42* (peak 2)]
101 to 500 nM | Cc1c(-c2ccncc2)n[nH]c1N1CCC(Cc2ccc(Cl)nc2)C1=O (single isomer, unassigned) [I-48* (peak 2)]
< 50 nM | O=C1C(Cc2cnc(Cl)c(F)c2)CCN1c1cc(-c2ccncc2)n[nH]1 (single isomer, unassigned) [I-65* (peak 2)]

target: T1, SARM1 (ARM-SAM-TIR, full length SARM1); assay: biochemical; details: SARM1 IC50 (nM), ARM-SAM-TIR lysate 5 μg/mL from NRK1-HEK293T cells, 2 h pre-incubation, 5 uM NAD+, 2 hr room temperature
Method: This assay makes use of full length SARM1, which encompasses the ARM, SAM and TIR domains.
Preparation of ARM-SAM-TIR lysate (STL)
NRK1-HEK293T cells were seeded onto 150 cm^2 plates at 20×10^6 cells per plate. The next day, the cells were transfected with 15 g ARM-SAM-TIR expression plasmid, SEQ ID NO: 1.
The cultures were supplemented with 1 mM NR at time of transfection to minimize toxicity from ARM-SAM-TIR overexpression. Forty-eight hours after transfection, cells were harvested, pelleted by centrifugation at 1,000 rpm (Sorvall ST 16R centrifuge, Thermo Fisher), and washed once with cold PBS (0.01 M phosphate buffered saline NaCl 0.138 M; KCl 0.0027 M; pH 7.4). The cells were resuspended in PBS with protease inhibitors (cOmplete™ protease inhibitor cocktail, Roche product #11873580001) and cell lysates were prepared by sonication (Branson Sonifer 450, output=3, 20 episodes of stroke). The lysates were centrifuged (12,000×g for 10 min at 4° C.) to remove cell debris and the supernatants (containing ARM-SAM-TIR protein) were stored at −80° C. for later use in the in vitro ARM-SAM-TIR NADase assay (see below). Protein concentration was determined by the Bicinchoninic (BCA) method and used to normalize lysate concentrations.
ARM-SAM-TIR IC50 assay of Formula I compounds.
The enzymatic assay was performed in a 384-well polypropylene plate in Dulbecco's PBS buffer in a final assay volume of 20 μL. ARM-SAM-TIR lysate with a final concentration of 5 μg/mL was pre-incubated with the respective compound at 1% DMSO final assay concentration over 2h at room temperature. The reaction was initiated by addition of 5 uM final assay concentration of NAD+ as substrate. After a 2 hr room temperature incubation, the reaction was terminated with 40 μL of stop solution of 7.5% trichloroactetic acid in acetonitrile. The NAD+ and ADPR concentrations were analyzed by a RapidFire High Throughput Mass Spectrometry System (Agilent Technologies, Santa Clara, Calif.) using an API4000 triple quadrupole mass spectrometer (AB Sciex Framingham, Mass.).

IC50 | SMILES
101 to 500 nM | N#Cc1cc(CC2CCN(c3cc(-c4ccncc4)n[nH]3)C2=O)ccc1F (centres unmarked) [Compound I-116]
101 to 500 nM | N#Cc1cc(CC2CCN(c3cc(-c4ccncc4)n[nH]3)C2=O)ccc1Cl (centres unmarked) [Compound I-118]
